Reference: paper PMC11079024, “Identification of a family of species-selective complex I inhibitors as potential anthelmintics” (Nature Communications, 2024)
Values joined by “and” are separate entries in the source; they are usually repeats but may differ in a detail not shown here. Equal values may be shown once. Read-outs that look alike come from different tables or passages of the source.

What was measured:
HEK293 cells = details: individual replicate (Rep)
[1] = test system: C. elegans complex III (decylubiquinol-cytochrome C reductase); test: In vitro complex III activity assay, C. elegans mitochondria; assay type: biochemical, Caenorhabditis elegans; details: for CIII Activity: 100 μM inhibitor, in vitro activity relative to solvent control, N2 C. elegans mitochondria
Outline: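 Mitochondria were isolated from adult C. elegans by bead-beating and differential centrifugation, then used at 0.2 mg/mL protein. Antimycin A-sensitive complex III activity was followed as decylubiquinol-driven cytochrome C reduction at 550 nm every 30 s for 15 min. Initial linear slopes were expressed as percent of solvent control.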

[2] = test system: C. elegans complex IV (cytochrome C oxidase); test: In vitro complex IV activity assay, C. elegans mitochondria; assay type: biochemical, Caenorhabditis elegans; details: for CIV Activity: 100 μM inhibitor, in vitro activity relative to solvent control, N2 C. elegans mitochondria
Outline: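 Mitochondria from liquid-cultured adult C. elegans (N2, CB3474, ECA882, ECA917, ECA1075, ECA1080), isolated by differential centrifugation and used at 0.2 mg/mL protein. Oxidation of DTT-reduced cytochrome C followed at 550 nm every 30 s for 15 min. Activity from the initial linear slope, expressed as percent of solvent controls.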

[3] = target: C. elegans complex II (succinate dehydrogenase) (Caenorhabditis elegans, UniProt O62215+P41956+Q09545); test: In vitro complex II activity assay, C. elegans mitochondria; assay type: biochemical
Outline: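 Mitochondria isolated from adult C. elegans were diluted to 0.2 mg/mL protein and assayed for complex II by the DCIP-coupled method. A600 was read every 30 s over 15 min, with initial linear slope expressed as percent of solvent control. Screening was at 100 μM (≥3 biological replicates), followed by dose-response.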

[4] = 100 µM compound, relative to solvent control, mean (SEM)
[5] = 100 μM of NPD compound, C. elegans mitochondria, individual biological replicates
[6] = 100 μM of NPD compound, C. elegans mitochondria, mean of four biological replicates

C. elegans complex II (succinate dehydrogenase), sequence (P41956 30-182): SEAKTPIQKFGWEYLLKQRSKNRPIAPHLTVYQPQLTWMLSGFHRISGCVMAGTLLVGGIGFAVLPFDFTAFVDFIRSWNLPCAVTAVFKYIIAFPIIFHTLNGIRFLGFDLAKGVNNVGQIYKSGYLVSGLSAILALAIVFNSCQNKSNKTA
C. elegans complex II (succinate dehydrogenase), sequence (Q09545 22-298): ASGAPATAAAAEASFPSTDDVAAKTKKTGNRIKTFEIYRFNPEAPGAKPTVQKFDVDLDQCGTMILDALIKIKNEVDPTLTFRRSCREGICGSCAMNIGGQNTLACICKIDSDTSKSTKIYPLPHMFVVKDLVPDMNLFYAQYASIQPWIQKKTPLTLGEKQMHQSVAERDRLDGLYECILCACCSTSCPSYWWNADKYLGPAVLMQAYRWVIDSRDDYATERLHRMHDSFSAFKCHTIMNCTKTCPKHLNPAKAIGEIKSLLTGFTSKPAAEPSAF
C. elegans complex II (succinate dehydrogenase), sequence (Q09508 32-646, further chain): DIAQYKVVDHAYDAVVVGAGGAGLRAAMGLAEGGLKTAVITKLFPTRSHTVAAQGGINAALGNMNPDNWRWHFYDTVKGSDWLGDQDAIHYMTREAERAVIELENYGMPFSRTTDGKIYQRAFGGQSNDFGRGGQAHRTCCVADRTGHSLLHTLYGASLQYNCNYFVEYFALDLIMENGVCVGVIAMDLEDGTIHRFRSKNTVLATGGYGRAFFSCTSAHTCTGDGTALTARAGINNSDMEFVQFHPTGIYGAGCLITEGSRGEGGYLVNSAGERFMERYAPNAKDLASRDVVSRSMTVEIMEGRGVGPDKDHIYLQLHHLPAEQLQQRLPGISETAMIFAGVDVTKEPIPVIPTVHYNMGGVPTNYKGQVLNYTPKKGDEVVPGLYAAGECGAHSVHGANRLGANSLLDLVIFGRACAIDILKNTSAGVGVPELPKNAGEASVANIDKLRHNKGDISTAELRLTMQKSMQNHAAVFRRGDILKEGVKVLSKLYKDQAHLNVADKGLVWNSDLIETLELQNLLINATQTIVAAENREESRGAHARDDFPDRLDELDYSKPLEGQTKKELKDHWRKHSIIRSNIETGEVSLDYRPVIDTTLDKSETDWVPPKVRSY
C. elegans complex II (succinate dehydrogenase), sequence (O62215 31-145): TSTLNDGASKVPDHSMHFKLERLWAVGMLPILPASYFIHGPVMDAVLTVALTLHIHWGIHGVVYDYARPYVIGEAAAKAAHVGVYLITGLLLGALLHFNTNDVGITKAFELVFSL

C=C(C)[C@H]1Cc2c(ccc3c2O[C@@H]2COc4cc(OC)c(OC)cc4[C@@H]2C3=O)O1 [Rotenone, reference compound]
HEK293 viability (HEK293 cells; dose 0.4 µM): 0.393 and 0.409 and 0.194
HEK293 viability (HEK293 cells; dose 0.8 µM): 0.340 and 0.322
HEK293 viability (HEK293 cells; dose 3.1 µM): 0.488 and 0.455
HEK293 viability (HEK293 cells; dose 6.3 µM): 0.380 and 0.286
HEK293 viability (HEK293 cells; dose 12.5 µM): 0.265
HEK293 viability (HEK293 cells; dose 25 µM): 0.242 and 0.200
HEK293 viability (HEK293 cells; dose 50 µM): 0.196 and 0.203
% Activity Complex III [1, 4]: 99.20 (1.32) %
CIII Activity ([1]; Mean): 99.203%
CIII Activity ([1]; single replicate): 92.288% and 102.759% and 97.964% and 103.800%
Percent in vitro activity, Complex III (single replicate Rep1-Rep4) [1, 5]: 102.759% and 97.964% and 103.800% and 92.288%
Percent in vitro activity, Complex III (Mean) [1, 6]: 99.203%
% Activity Complex IV [2, 4]: 99.57 (1.12) %
CIV Activity ([2]; Mean): 99.566%
CIV Activity ([2]; single replicate): 94.435% and 102.333% and 104.163% and 97.333%
Percent in vitro activity, Complex IV (single replicate Rep1-Rep4) [2, 5]: 102.333% and 104.163% and 97.333% and 94.435%
Percent in vitro activity, Complex IV (Mean) [2, 6]: 99.566%
activity at 100 µM ([3]; 100 µM compound, relative to solvent control, mean (SEM), read-out: % Activity Complex II): 106%
activity at 100 µM ([3]; 100 μM inhibitor, in vitro activity relative to solvent control, N2 C. elegans mitochondria, Mean, read-out: CII Activity): 106%
Percent in vitro activity, Complex II (single replicate Rep1-Rep4) ([3]; 100 μM of NPD compound, C. elegans mitochondria, individual biological replicates, 100 µM): 120.467% and 95.666% and 95.033% and 112.709%
activity at 100 µM ([3]; 100 μM of NPD compound, C. elegans mitochondria, mean of four biological replicates, read-out: Percent in vitro activity, Complex II (Mean)): 106%

Cc1cc(O)c2c(c1)O[C@@]1(C)CC[C@H]3C(C)(C)CCC[C@]34CO[C@@H]2[C@H]41 [Siccanin]
HEK293 viability (HEK293 cells; dose 0.4 µM): 0.916
HEK293 viability (HEK293 cells; dose 0.8 µM): 0.884
HEK293 viability (HEK293 cells; dose 3.1 µM): 0.838 and 0.744
HEK293 viability (HEK293 cells; dose 6.3 µM): 0.943 and 0.986
HEK293 viability (HEK293 cells; dose 12.5 µM): 0.861 and 0.895 and 0.672
HEK293 viability (HEK293 cells; dose 25 µM): 0.599 and 0.475 and 0.289
HEK293 viability (HEK293 cells; dose 50 µM): 0.058 and 0.057
remaining activity at 0.0001 µM ([3]; dose 0.0001 µM, Mean of replicates, wild-type C. elegans, read-out: percent (%) in vitro complex II activity relative to solvent control): 103%
percent (%) in vitro complex II activity relative to solvent control ([3]; dose 0.0001 µM, individual replicates, wild-type C. elegans): 101.370% and 113.242%
remaining activity at 0.0001 µM ([3]; dose 0.0001 µM, individual replicates, wild-type C. elegans, read-out: percent (%) in vitro complex II activity relative to solvent control): 95.2%
remaining activity at 0.0005 µM ([3]; dose 0.0005 µM, Mean of replicates, wild-type C. elegans, read-out: percent (%) in vitro complex II activity relative to solvent control): 104%
percent (%) in vitro complex II activity relative to solvent control ([3]; dose 0.0005 µM, individual replicates, wild-type C. elegans): 86.897% and 113.059% and 111.964%
remaining activity at 0.001 µM ([3]; dose 0.001 µM, Mean of replicates, wild-type C. elegans, read-out: percent (%) in vitro complex II activity relative to solvent control): 84.8%
percent (%) in vitro complex II activity relative to solvent control ([3]; dose 0.001 µM, individual replicates, wild-type C. elegans): 69.310% and 87.306% and 97.900%
remaining activity at 0.0025 µM ([3]; dose 0.0025 µM, Mean of replicates, wild-type C. elegans, read-out: percent (%) in vitro complex II activity relative to solvent control): 76.6%
percent (%) in vitro complex II activity relative to solvent control ([3]; dose 0.0025 µM, individual replicates, wild-type C. elegans): 54.828% and 79.635% and 95.343%
remaining activity at 0.005 µM ([3]; dose 0.005 µM, Mean of replicates, wild-type C. elegans, read-out: percent (%) in vitro complex II activity relative to solvent control): 64.8%
percent (%) in vitro complex II activity relative to solvent control ([3]; dose 0.005 µM, individual replicates, wild-type C. elegans): 62.831% and 72.146%
remaining activity at 0.005 µM ([3]; dose 0.005 µM, individual replicates, wild-type C. elegans, read-out: percent (%) in vitro complex II activity relative to solvent control): 59.3%
remaining activity at 0.013 µM ([3]; dose 0.013 µM, Mean of replicates, wild-type C. elegans, read-out: percent (%) in vitro complex II activity relative to solvent control): 42.5%
percent (%) in vitro complex II activity relative to solvent control ([3]; dose 0.013 µM, individual replicates, wild-type C. elegans): 45.480% and 44.018%
remaining activity at 0.013 µM ([3]; dose 0.013 µM, individual replicates, wild-type C. elegans, read-out: percent (%) in vitro complex II activity relative to solvent control): 37.9%
remaining activity at 0.025 µM ([3]; dose 0.025 µM, Mean of replicates, wild-type C. elegans, read-out: percent (%) in vitro complex II activity relative to solvent control): 27.5%
percent (%) in vitro complex II activity relative to solvent control ([3]; dose 0.025 µM, individual replicates, wild-type C. elegans): 28.128% and 27.763%
remaining activity at 0.025 µM ([3]; dose 0.025 µM, individual replicates, wild-type C. elegans, read-out: percent (%) in vitro complex II activity relative to solvent control): 26.6%
remaining activity at 0.063 µM ([3]; dose 0.063 µM, Mean of replicates, wild-type C. elegans, read-out: percent (%) in vitro complex II activity relative to solvent control): 13%
percent (%) in vitro complex II activity relative to solvent control ([3]; dose 0.063 µM, individual replicates, wild-type C. elegans): 17.717% and 11.872%
remaining activity at 0.063 µM ([3]; dose 0.063 µM, individual replicates, wild-type C. elegans, read-out: percent (%) in vitro complex II activity relative to solvent control): 9.48%
remaining activity at 0.125 µM ([3]; dose 0.125 µM, Mean of replicates, wild-type C. elegans, read-out: percent (%) in vitro complex II activity relative to solvent control): 9.4%
percent (%) in vitro complex II activity relative to solvent control ([3]; dose 0.125 µM, individual replicates, wild-type C. elegans): 1.897% and 15.890% and 10.411%
remaining activity at 0.313 µM ([3]; dose 0.313 µM, Mean of replicates, wild-type C. elegans, read-out: percent (%) in vitro complex II activity relative to solvent control): 6.54%
percent (%) in vitro complex II activity relative to solvent control ([3]; dose 0.313 µM, individual replicates, wild-type C. elegans): 4.655% and 12.968% and 2.009%
remaining activity at 0.625 µM ([3]; dose 0.625 µM, Mean of replicates, wild-type C. elegans, read-out: percent (%) in vitro complex II activity relative to solvent control): 3.28%
percent (%) in vitro complex II activity relative to solvent control ([3]; dose 0.625 µM, individual replicates, wild-type C. elegans): 3.621% and 6.210%
remaining activity at 1.5 µM ([3]; dose 1.5 µM, Mean of replicates, wild-type C. elegans, read-out: percent (%) in vitro complex II activity relative to solvent control): 9.39%
percent (%) in vitro complex II activity relative to solvent control ([3]; dose 1.5 µM, individual replicates, wild-type C. elegans): 5.345% and 10.046% and 12.785%
remaining activity at 3 µM ([3]; dose 3 µM, Mean of replicates, wild-type C. elegans, read-out: percent (%) in vitro complex II activity relative to solvent control): 3.77%
percent (%) in vitro complex II activity relative to solvent control ([3]; dose 3 µM, individual replicates, wild-type C. elegans): 3.448% and 7.854%
remaining activity at 15 µM ([3]; dose 15 µM, Mean of replicates, wild-type C. elegans, read-out: percent (%) in vitro complex II activity relative to solvent control): 1.28%
percent (%) in vitro complex II activity relative to solvent control ([3]; dose 15 µM, individual replicates, wild-type C. elegans): 1.461% and 2.374%
remaining activity at 37.5 µM ([3]; Mean of replicates, wild-type C. elegans, read-out: percent (%) in vitro complex II activity relative to solvent control): 0%
remaining activity at 37.5 µM ([3]; individual replicates, wild-type C. elegans, read-out: percent (%) in vitro complex II activity relative to solvent control): 0%
remaining activity at 75 µM ([3]; dose 75 µM, Mean of replicates, wild-type C. elegans, read-out: percent (%) in vitro complex II activity relative to solvent control): 1.83%
percent (%) in vitro complex II activity relative to solvent control ([3]; dose 75 µM, individual replicates, wild-type C. elegans): 5.480%
IC50 ([3]; wild-type (N2) mitochondria): 10.7 nM
